Experiments:
Caco-2 cell monolayers [1] = assay: Caco-2 cell transport assay (Papp, efflux ratio); settings: Caco-2 monolayers
Method: (§1) The Center of Cellular Resources at the Chinese Academy of Sciences (Shanghai, China) provided the human colon adenocarcinoma cell line Caco-2, and the experiment utilized 15–30 generations of these cells. DMEM enriched with 15% FBS, 1% non-essential amino acids, 1% Penicillin-Streptomycin Solution (×100), and 1% sodium pyruvate was utilized to cultivate cells at 37°C in a humidified atmosphere of 5% CO2. The cells were separated from flasks when they achieved the anticipated confluence threshold (70%–80%), and they were then inoculated in 12-well plates at a density of 2–5 × 10^5 cells/cm^2 in a polycarbonate Transwell® (pore size: 0.4 µm; filter area: 1.12 cm^2). In the first week, the culture media was switched every 2 days.
(§2) Caco-2 monolayers were pre-cultured in HBSS for 15 min at 37°C after being rinsed two times with preheated Hanks' balanced salt solution (HBSS, pH = 7.4). The donor side was supplemented with DEDM (25, 50, and 100 μM) and EDM (2.5, 5, and 10 μM), and the receiver chamber was filled with the corresponding volume of HBSS medium. For 120 min, the plate was incubated at 37°C. At 0, 30, 45, 60, 90, and 120 min, a 0.5 mL aliquot of each receiver chamber’s sample was taken, and 0.5 mL of HBSS was added to keep the volume constant. By using high-performance liquid chromatography (HPLC), the samples were examined. The sample (300 μL) taken from the receiver chamber was mixed with 300 μL of acetonitrile, and the combination was centrifuged for 10 min at 13,000 rpm. Lastly, a 100 µL aliquot of the supernatant was injected into the HPLC for examination.
(§3) Two drugs were quantitatively determined using an Agilent 1,260 HPLC apparatus (United States). A C18 column (1.8 μm, 3.0 × 150 mm; Agilent Technologies, Santa Clara, CA, United States) was used for the separation, with a column temperature of 25°C. The mobile phase comprised both A (water) and B (acetonitrile). The ratio between A and B was 70: 30 with a flow rate of 1 mL per minute. For EDM or DEDM, 20 μL samples were injected and analyzed at 290 nm or 344 nm, respectively. Acetonitrile was used to create the standard stock solutions for EDM and DEDM, respectively. By serially diluting standard stock solutions with HBSS, working solutions were made. The effective concentrations were 0.04–2.5 μg/mL for EDM and 0.23–7.5 μg/mL for DEDM, respectively. These samples were stored at 4°C before being used.
(§4) Eqs 1, 2 were used to determine the apparent permeability coefficients (Papp) and efflux ratio (ER) of marker drugs: Papp=dQ/dtC0A (1) where dQ/dt is the cumulative transport rate (M/min), C0 is the initial concentration of each marker drug, and A is the surface area of the filters. ER=PappBL−AP/PappAP−BL (2)
(§5) Data for transport experiments are presented as the mean ± SD of six independent experiments.

Caco-2 cell monolayers [2] = settings: pH 7.4
Method: as §1, §2, §3, §4, §5

Caco-2 cells = assay: Cell viability assay (MTT), nontoxic concentration; format: cell-based, human; settings: 48 h
Method: The cytotoxicity of EDM and DEDM was assessed in Caco-2 cells using the aforementioned MTT test. These alkaloids were produced as solutions in DMSO and then diluted in cell culture media. Inoculating Caco-2 cells (1 × 10^4cells/well) in 96-well plates with 200 μL of media. After additional 48 h of incubation with EDM and DEDM (final test alkaloids concentrations ranged from 0.4 to 200 μM, and DMSO was less than 0.05%), the medium was discarded. To each well, an aliquot of 190 μL freshly prepared DMEM (serum-free) having 10.0 μL MTT (5 mg/mL) was added. The medium in every well was then removed from the plate after a further 4 h at 37°C of incubation. In 100 μL of DMSO, the purple formazan product was dissolved. Using a microplate reader, the ratio of absorbance (treated to untreated cells) at 490 nm was employed to measure cell viability.

in vitro = settings: human, Caco-2, pH 7.4
Method: as §1, §2, §3, §4, §5

[3] = set-up: method as in Lin et al., 2012; settings: ref Lin et al., 2012; cited from earlier work
[4] = Tissue distribution and PK after tail vein injection; format: in vivo, mice
Method: The mixture was then transferred to a sterile centrifuge tube after being repeatedly ground for 30 min with a tiny amount of ordinary saline added. After that, saline was added and ultrasonically processed for 1 h. In a vacuum freeze drier, the suspension was freeze-dried for 30 h. To make the injection, the freeze-dried powder was ultimately redissolved in regular saline. After acclimatization, all mice were acclimated before being randomly placed into four groups of three each: EDM (H) group, EDM (L) group, DEDM (H) group, DEDM (L) group. […] Supernatant plasma from the collected sample was transferred into another tube and kept at −80°C until analysis after being centrifuged at 3,000 rpm for 10 min. Immediately after blood was obtained, the mice were dissected. Saline was injected into the heart until the liver turned white. […] The calibration standards, tissue samples, and plasma samples were pretreated with acetonitrile for protein precipitation. […] To remove the denatured protein, the mixture was vortexed for 1 min and then centrifuged at 16,500 rpm for 10 min. The supernatant was finally injected into the LC-MS/MS in an aliquot of 100 µL for analysis. […] Using an isocratic elution, the EDM and DEDM were analyzed. […] With a flow rate of 0.3 mL/min, the ratio between A and B was 20: 80 for 4 min. The column temperature was kept at 35°C. Prior to injection, samples were transferred in an auto-sampler at a temperature of 4°C and 5 µL was the injection volume. […] The ion source was electrospray ionization (ESI) and adopts positive ion mode. The scan mode was multiple reaction monitoring (MRM). The operating conditions for the EDM and DEDM were 4000 V capillary voltage. […] Acetonitrile was used to prepare standard stock solutions for each type of EDM and DEDM individually. By diluting the standard stock solutions serially with acetonitrile, working standards for the EDM and DEDM were made. The calibration curve samples were acquired by spiking the series working standard solutions (10 μL) into a tube and evaporating the solvent, and then adding blank mouse tissue homogenate or plasma (100 μL). […] DEDM is used as an internal standard compound when detecting EDM. Meanwhile, when DEDM is detected, EDM is used as the internal standard compound. The final concentration of the internal standard compound is 10 ng/mL. […] For the Non-compartmental PK analysis, Thermo Kinetica (Version 5.0, Thermo Electron Corporation, Waltham, MA) was employed. Based on observed data, the time when the maximum tissue concentration was reached (Tmax) and the maximum tissue concentration (Cmax) were assessed. […] Additionally, the mean residence time (MRT) was computed. PK parameters are reported as the mean of […]. Linear and non-linear regressions were analyzed in Microsoft Excel 2016® (United States).

Row | SMILES | bidirectional transport comparison, secretory (basolateral→apical) vs absorptive (apical→basolateral) permeability (Caco-2 cell monolayers [1]) | Papp (Caco-2 cell monolayers [2]) [×10⁻⁶ cm/s] | Nontoxic concentration (Caco-2 cells; Caco-2 cells, MTT) [µM] | Nontoxic concentration (Caco-2 cells; human) [µM] | Papp at 120 min (in vitro) [×10⁻⁶ cm/s] | permeability class (Caco-2 cell monolayers [1]; from Papp level) | oral bioavailability [3] [%] | AUC0-t ([4]; Kindy, 10 mg/kg tail vein, mice, average) [µg·h/g] | time to maximum plasma concentration (Cmax) ([4]; mouse, in vivo) [min] | Tmax ([4]; mouse, in vivo, iv, 5 mg/kg) [min] | Tmax ([4]; mouse, in vivo, iv, 10 mg/kg, Tmax) [min] | half-life ([4]; mouse, in vivo, iv, Lung, 5 mg/kg tail vein, mice, average) [min] | Tmax ([4]; mouse, in vivo, time to peak concentration in different tissues) [min]
1 | O=c1c2cccc(O)c2nc2n1CCc1c-2[nH]c2ccccc12 [1-HRUP, 1-hydroxyrutaecarpine] | nearly comparable | ≥ 1 | 100 |  |  |  |  |  |  |  |  |  | 
2 | COc1ccc2c(OC)c3ccoc3nc2c1 [EVT, evolitrine] | nearly comparable |  |  | 100 | ~10 |  |  |  |  |  |  |  | 
3 | O=c1c2ccccc2nc2n1CCc1c-2[nH]c2ccccc12 [RUP, rutaecarpine] | more than twice as high in the secretory direction |  |  | 100 | ≥ 1 |  |  |  |  |  |  |  | 
4 | C[n+]1c2n(c(=O)c3ccccc31)CCc1c-2[nH]c2ccccc12 [dehydroevodiamine] | nearly comparable |  |  | 100 | 10 | high permeability | 15.35 | 1.87 | ≤ 15 | 45 | 15 | 107 | 15

Source: publication PMC10117637 (Frontiers in Pharmacology, 2023)
